Test results reported in US10450549B2, “Aryloxyphenoxypropionate tolerance in turfrgass species and use of AAD1 as a selectable marker” (Dow AgroSciences, LLC, priority 2004, dated 2019).

Test system: AAD1 (v3) event lines
Assay: Field tolerance of pDAB3404 T1 corn to quizalofop and 2,4-D: AAD1 (v3) events
Type: in vivo
Conditions: 140 g ae/ha
Excerpt: Two field trials were established at field stations in Hawaii and Indiana. […] The hybrid Hi-II×5XH571 is of the same parentage as the AAD1 (v3) event lines. The hybrid Croplan 585SR is a sethoxydim resistant line.
The experimental design was a split-plot with four replications. The main plot was herbicide treatment and the sub-plot was AAD1 (v3) event or comparison hybrid. Plots were one row by 3.7 meters with approximately twenty-five seeds planted in each row. For AAD1 events, seeds from a different lineage within the event were planted in each replicate.
Glufosinate at 560 g ai/ha was applied to AAD1 (v3) plots at the V2 stage to eliminate non-transformed plants. […] Treatments were applied using backpack broadcast boom equipment delivering 187 L/ha carrier volume at 130-200 kpa pressure.
Quizalofop treated plots were visually assessed for crop injury at one and three weeks after application (WAA) using a 0-100% scale, where 0 equals no injury and 100 equals complete death.

## C[C@@H](Oc1ccc(Oc2cnc3cc(Cl)ccc3n2)cc1)C(=O)O [quizalofop]
HI, 3404.001
  % Injury 3 WAA (0-100 scale): 25%
HI, 3404.006
  % Injury 3 WAA (0-100 scale): 0%
HI, 3404.013
  % Injury 3 WAA (0-100 scale): 0%
HI, 3404.017
  % Injury 3 WAA (0-100 scale): 0%
HI, 3404.020
  % Injury 3 WAA (0-100 scale): 0%
HI, 3404.022
  % Injury 3 WAA (0-100 scale): 0%
HI, 3404.025
  % Injury 3 WAA (0-100 scale): 0%
HI, 3404.027
  % Injury 3 WAA (0-100 scale): 0%
HI, 3404.031
  % Injury 3 WAA (0-100 scale): 0%
HI, 3404.033
  % Injury 3 WAA (0-100 scale): 0%
HI, 3404.036
  % Injury 3 WAA (0-100 scale): 0%
HI, 3404.044
  % Injury 3 WAA (0-100 scale): 0%
HI, 3404.050
  % Injury 3 WAA (0-100 scale): 0%
HI, 3404.053
  % Injury 3 WAA (0-100 scale): 0%
HI, 3404.074
  % Injury 3 WAA (0-100 scale): 0%
HI, 3404.082
  % Injury 3 WAA (0-100 scale): 0%
IN, 3404.001
  % Injury 3 WAA (0-100 scale): 25%
IN, 3404.006
  % Injury 3 WAA (0-100 scale): 0%
IN, 3404.013
  % Injury 3 WAA (0-100 scale): 0%
IN, 3404.017
  % Injury 3 WAA (0-100 scale): 0%
IN, 3404.020
  % Injury 3 WAA (0-100 scale): 0%
IN, 3404.022
  % Injury 3 WAA (0-100 scale): 0%
IN, 3404.025
  % Injury 3 WAA (0-100 scale): 0%
IN, 3404.027
  % Injury 3 WAA (0-100 scale): 0%
IN, 3404.031
  % Injury 3 WAA (0-100 scale): 0%
IN, 3404.033
  % Injury 3 WAA (0-100 scale): 0%
IN, 3404.036
  % Injury 3 WAA (0-100 scale): 0%
IN, 3404.044
  % Injury 3 WAA (0-100 scale): 0%
IN, 3404.050
  % Injury 3 WAA (0-100 scale): 0%
IN, 3404.053
  % Injury 3 WAA (0-100 scale): 0%
IN, 3404.074
  % Injury 3 WAA (0-100 scale): 0%
IN, 3404.082
  % Injury 3 WAA (0-100 scale): 0%
